Reference: patent publication US20170368018A1, “USE OF ELLAGIC ACID DIHYDRATE IN PHARMACEUTICAL FORMULATIONS TO REGULATE BLOOD GLUCOSE LEVELS” (HALO LIFE SCIENCE, LLC, priority 2014, published 2017)
Entries after “also recorded” stand apart in the source; their conditions may differ.

Experiments:
[1] = Estimated saturation in 100% DMSO; format: physicochemical
Procedure: General Procedure. For Examples 2 through 7, all test compounds of interest were initially dissolved in 100% DMSO. Estimated saturation occurred at approximately 4 mM for ellagic acid dihydrate. The saturated solution was diluted 1:10 in 1× PBS; creating a 100× stock solution of 400 μM ellagic acid dihydrate. Working concentrations (1×), 4 μM, and more dilute concentrations of ellagic acid dihydrate were created by 1:10 dilutions into 0.1% DMSO. The resulting six dilutions ranged from 4 μM to 0.04 nM. Dose curves were analyzed using either Harmony software on the Operetta (Perkin Elmer) or Excel (Microsoft) for flow cytometry, which was performed on a BD Accuri (BD Biosciences).

[2] = tested on: AKT / Phos AKT in C2C12 cells; test: AKT:phos AKT ratio by immunocytochemistry, high-content imaging; format: cell-based, mouse; settings: C2C12, serum starved 1 hr, treated 30 minutes, 4 nM-4 μM, FIG. 8
Procedure: Stimulation of AKT pathways and MAPK pathways in ellagic acid dihydrate, metformin, and insulin treated cell cultures was performed. Insulin stimulates glucose uptake into cells by increasing GLUT4 activation, and AKT, specifically phos-AKT, signaling alters GLUT4 translocation. […] Cellular assays were performed using mouse myoblast C2C12 cells. […] Serum starved cells (1 hr) were treated for 30 minutes with each of the tested compounds.

[3] = tested on: mouse myoblast C2C12 cells; test: Glucose uptake, 2-NBDG labeling, flow cytometry, C2C12; format: cell-based
Procedure: (§1) Cellular assays were performed using mouse myoblast C2C12 cells and MEF cells. […] Increased glucose uptake was indicated as increasing signal of 2-NBDG ([…]) in cells. Glucose uptake assays were carried out in a final incubation volume of 50 μl consisting of, 2-NBDG), (100 μM) in 1× Phosphate Buffered Saline w/Ca+, Mg+ (PBS++). The same buffer was used for washing cells. Insulin was used as a positive control. All testing compounds were prepared in 10% DMSO and diluted 1:100 for a final concentration of 0.1% DMSO (vehicle). Cells were culture to 70-90% confluence and then washed twice with PBS++. Cells were incubated for 30 minutes at 37° C. in PBS++. Nuclear stain, HCS CellMask stain (blue, Invitrogen), and/or testing compounds (ellagic acid dihydrate, insulin, or vehicle) were added. Cells were incubated for 30 min at 37° C. Cells were washed twice with PBS++and incubated with 2-NBDG for 10 minutes. Cells were washed thrice with PBS++and then imaged in PBS++. Alternatively, the final PBS wash was removed and cells were incubated with Accutase (Invitrogen) for 10 min at 37° C., neutralized with 10% FBS in 1× PBS, and analyzed by flow cytometry. An additional experiment was performed to measure glucose uptake in C2C12 cells exposed to metformin, insulin and ellagic acid dihydrate 2 (batch 2). FIG. 5C.

[4] = tested on: mouse embryonic fibroblasts (MEFs); test: Cytotoxicity: cell proliferation by automated cell counting (flow cytometry); format: cell-based; settings: 48 hr exposure, 4 μM-0.04 nM, changes not statistically significant (P>0.05)
Procedure: The cytotoxicity of ellagic acid dihydrate in in vitro cell culture was evaluated. Cellular assays were performed using mouse embryonic fibroblasts (MEFs). Cells were unexposed (No Treatment) or exposed to varying concentrations of ellagic acid dihydrate (4 μM-0.04 nM) or vehicle (0.1% DMSO) for 48 hrs. All assays were run in triplicate.
Cell proliferation rates were determined using automated cell counting of cells after 48 hr exposure to ellagic acid dihydrate in complete medium (DMEM w/10% FBS). Cell were then washed thrice with 1× PBS and incubated with Accutase (Invitrogen) for 10 min at 37° C., neutralized with 10% FBS in 1× PBS, and analyzed by flow cytometry. Cell concentrations were determined by cell counting (500-1000) on a flow cytometer (Accuri C6, BD Biosciences). The concentration of cells reflects the impact of ellagic acid dihydrate on the cell population numbers (cell death and cell proliferation).

[5] = tested on: p44/42 MAPK / Phos p44/42 MAPK in C2C12 cells; test: p44/42 MAPK:phos p44/42 MAPK ratio by immunocytochemistry, high-content imaging; format: cell-based, mouse; settings: C2C12, treated 30 minutes, 400 nM, 0.04 nM, FIG. 9
Procedure: Stimulation of AKT pathways and MAPK pathways in ellagic acid dihydrate, metformin, and insulin treated cell cultures was performed. Insulin stimulates glucose uptake into cells by increasing GLUT4 activation, and AKT, specifically phos-AKT, signaling alters GLUT4 translocation. […] Cellular assays were performed using mouse myoblast C2C12 cells. Relative protein levels of AKT:phos AKT and p44/42 MAPK:phos p44/42 MAPK were determined.
Serum starved cells (1 hr) were treated for 30 minutes with each of the tested compounds. Ratios of phosphorylated to non-phosphorylated proteins were determined using immunocytochemistry labeling (anti-AKT, anti-Phos AKT; or anti-p44/42 MAPK, anti-Phos p44/42 MAPK) on a high-content imaging system (Operetta, Perkin Elmer) using the fluorescent signal of anti-rabbit Alexa 647. Increased phosphorylation is indicated as decrease in signal of AKT:Phos AKT ratio (log2 scale) and p44/42 MAPK:Phos p44/42 MAPK ratio (log2 scale) relative to vehicle treated cells.

[6] = tested on: MEF cells; test: Glucose uptake, 2-NBDG labeling, flow cytometry, MEFs; format: cell-based, mouse
Procedure: as §1, with “5C. Glucose uptake in ellagic acid dihydrate treated cell culture was measured and compared to glucose uptake under insulin or ellagic acid treatment. […] Flow cytometry results were run in triplicate with 1000 cells per batch.” for “5C.”

Compound: O.O.O=c1oc2c(O)c(O)cc3c(=O)oc4c(O)c(O)cc1c4c23 [ellagic acid dihydrate]
- Estimated saturation [1]: approximately 4 mM
- AKT:Phos AKT ratio (log2 scale) relative to vehicle treated cells [2]: increase in AKT relative to Phos-AKT signal
- increase in glucose uptake in myoblasts relative to fibroblasts ([3]; C2C12 (FIGS. 5A, 5B) versus MEFs (FIGS. 4A, 4B)): ~4 ×
- increase in glucose uptake compared with metformin ([3]; C2C12, 4000 nm, FIG. 5C (batch 2)): greater increase in glucose uptake than metformin
- dose effect for increasing glucose uptake ([3]; C2C12, flow cytometry, 4 μM-0.04 nM): showed a dose effect
- glucose uptake (2-NBDG signal) relative to vehicle ([3]; C2C12, flow cytometry, FIG. 5A): significantly greater than vehicle treated
- glucose uptake relative to insulin ([3]; myoblasts, at most concentrations tested, significant at 4 nM-4 μM, dihydrate): significantly more glucose uptake relative to insulin; also recorded: exceeded the uptake induced by insulin
- Cell proliferation [4]: trend toward increasing cell proliferation
- p44/42 MAPK:Phos p44/42 MAPK ratio relative to vehicle treated cells [5]: increase in p44/42 MAPK
- increased glucose uptake relative to vehicle treated cells ([6]; 400 nM exposure, fibroblasts, FIG. 4B): 47%
- dose effect for increasing glucose uptake ([6]; MEFs, flow cytometry, 4 μM-0.04 nM): showed a dose effect
- increase in glucose uptake compared with ellagic acid or insulin treatment ([6]; MEFs, flow cytometry, Example 5, FIG. 6): significantly greater increase in glucose uptake
- glucose uptake (2-NBDG signal) relative to vehicle ([6]; MEFs, flow cytometry, FIG. 4A): significantly greater than vehicle treated
- glucose uptake relative to insulin ([6]; fibroblasts, at most concentrations tested, significant at 4 nM-4 μM, dihydrate): significantly more glucose uptake relative to insulin; also recorded: exceeded the uptake induced by insulin
- glucose uptake per unit dose ([6]; in vitro conditions, summary statement): increase in glucose uptake per unit dose
